# ChEMBL document CHEMBL4196128 (ACS Med Chem Lett, 2018)
# What was measured:
# HT-29 = assay: Antiproliferative activity against human HT-29 cells harboring BRAF V600E/D mutant measured after 4 days; type: functional, cell-based; settings: HT-29, 96 h
# [1] = Clearance in dog hepatocytes assessed per million cells; type: ADME, cell-based, Canis lupus familiaris, Hepatocyte
# [2] = molecular target: Mitogen-activated protein kinase 3 (Homo sapiens, UniProt P27361); assay: Inhibition of ERK1 (unknown origin) using peptide substrate measured after 45 mins by IMAP assay
# Chain of Mitogen-activated protein kinase 3 (P27361 whole entry): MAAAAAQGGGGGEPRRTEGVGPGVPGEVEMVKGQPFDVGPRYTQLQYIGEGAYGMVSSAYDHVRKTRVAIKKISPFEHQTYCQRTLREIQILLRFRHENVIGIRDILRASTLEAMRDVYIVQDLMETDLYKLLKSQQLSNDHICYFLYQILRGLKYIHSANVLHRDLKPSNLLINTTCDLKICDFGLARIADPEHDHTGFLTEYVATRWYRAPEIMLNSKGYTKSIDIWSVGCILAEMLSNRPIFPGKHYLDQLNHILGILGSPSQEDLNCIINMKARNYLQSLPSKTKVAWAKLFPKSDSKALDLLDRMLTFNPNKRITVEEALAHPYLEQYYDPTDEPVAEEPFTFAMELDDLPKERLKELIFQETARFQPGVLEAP
# [3] = Clearance in human hepatocytes assessed per million cells; type: ADME, cell-based, Hepatocyte
# [4] = AUC in rat at 10 mg/kg; type: ADME, organism-based; settings: in vivo
# [5] = AUC in dog at 10 mg/kg; type: ADME, organism-based, Canis lupus familiaris; settings: in vivo
# COLO 205 = assay: Antiproliferative activity against human COLO205 cells harboring BRAF V600E/D mutant measured after 4 days; type: functional, cell-based; settings: COLO 205, 96 h
# hERG (KCNH2) [6] = molecular target: T1, hERG (KCNH2) (Homo sapiens, UniProt Q12809); assay: Inhibition of human ERG at 5 mg/ml by binding assay relative to control; parameters: dose or concentration left out as unconfirmed
# T1 sequence (Q12809 whole entry): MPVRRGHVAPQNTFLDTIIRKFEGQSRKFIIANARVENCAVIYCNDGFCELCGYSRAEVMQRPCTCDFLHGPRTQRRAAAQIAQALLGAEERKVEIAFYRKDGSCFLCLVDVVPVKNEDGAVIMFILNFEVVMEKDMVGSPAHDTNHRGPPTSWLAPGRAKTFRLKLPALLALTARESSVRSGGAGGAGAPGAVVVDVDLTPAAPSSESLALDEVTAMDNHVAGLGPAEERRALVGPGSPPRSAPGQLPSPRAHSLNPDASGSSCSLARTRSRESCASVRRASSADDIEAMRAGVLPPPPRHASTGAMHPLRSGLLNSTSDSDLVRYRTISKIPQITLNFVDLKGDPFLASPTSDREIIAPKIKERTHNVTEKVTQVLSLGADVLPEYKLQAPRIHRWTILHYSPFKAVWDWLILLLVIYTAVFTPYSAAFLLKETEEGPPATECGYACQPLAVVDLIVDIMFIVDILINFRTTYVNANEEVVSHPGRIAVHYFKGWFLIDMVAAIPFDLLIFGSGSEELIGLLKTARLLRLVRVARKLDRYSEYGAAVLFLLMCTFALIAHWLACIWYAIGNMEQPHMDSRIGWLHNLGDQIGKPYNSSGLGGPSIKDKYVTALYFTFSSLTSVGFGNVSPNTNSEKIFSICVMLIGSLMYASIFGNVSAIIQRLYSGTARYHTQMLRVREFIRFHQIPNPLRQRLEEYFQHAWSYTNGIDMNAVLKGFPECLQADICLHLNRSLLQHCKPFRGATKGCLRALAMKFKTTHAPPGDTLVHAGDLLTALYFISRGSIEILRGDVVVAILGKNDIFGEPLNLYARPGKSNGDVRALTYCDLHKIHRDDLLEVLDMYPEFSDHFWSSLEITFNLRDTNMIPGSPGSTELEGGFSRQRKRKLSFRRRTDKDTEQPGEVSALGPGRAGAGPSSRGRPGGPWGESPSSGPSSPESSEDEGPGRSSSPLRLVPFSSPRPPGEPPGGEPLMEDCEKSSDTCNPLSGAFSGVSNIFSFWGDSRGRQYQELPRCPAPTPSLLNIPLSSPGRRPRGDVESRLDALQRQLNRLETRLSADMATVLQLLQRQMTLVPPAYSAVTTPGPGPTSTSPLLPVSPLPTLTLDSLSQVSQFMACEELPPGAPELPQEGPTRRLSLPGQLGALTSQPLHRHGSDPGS
# [7] = molecular target: Mitogen-activated protein kinase 1 (Homo sapiens, UniProt P28482); assay: Inhibition of ERK2 (unknown origin) using peptide substrate measured after 45 mins by IMAP assay
# Chain of Mitogen-activated protein kinase 1 (P28482 whole entry): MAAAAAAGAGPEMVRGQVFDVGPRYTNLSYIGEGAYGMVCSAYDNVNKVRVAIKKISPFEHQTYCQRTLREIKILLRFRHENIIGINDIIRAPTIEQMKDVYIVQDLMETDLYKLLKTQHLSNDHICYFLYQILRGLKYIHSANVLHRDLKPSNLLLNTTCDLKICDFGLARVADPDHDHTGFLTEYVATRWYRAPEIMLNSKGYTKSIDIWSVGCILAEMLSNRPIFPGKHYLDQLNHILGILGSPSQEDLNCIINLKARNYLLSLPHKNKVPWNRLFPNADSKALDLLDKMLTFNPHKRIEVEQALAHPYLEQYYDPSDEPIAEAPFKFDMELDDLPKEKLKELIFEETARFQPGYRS
# hERG (KCNH2) [8] = molecular target: T1, hERG (KCNH2); assay: Inhibition of human ERG at 1.5 mg/ml by binding assay relative to control; parameters: dose or concentration left out as unconfirmed
# hERG (KCNH2) [9] = molecular target: T1, hERG (KCNH2); assay: Inhibition of human ERG at 1 uM by IonWork assay relative to control
# hERG (KCNH2) [10] = molecular target: T1, hERG (KCNH2); assay: Inhibition of human ERG at 10 uM by IonWork assay relative to control
# [11] = Plasma clearance in rat; type: ADME, organism-based
# [12] = Mean residence time in rat; type: ADME, organism-based; settings: in vivo
# [13] = Half life in rat; type: ADME, organism-based; settings: in vivo
# Cytochrome P450 3A4 = Cytochrome P450 3A4 (Homo sapiens, UniProt P08684); assay: Inhibition of CYP3A4 (unknown origin) preincubated followed by substrate addition; type: ADME
# Chain of Cytochrome P450 3A4 (P08684 whole entry): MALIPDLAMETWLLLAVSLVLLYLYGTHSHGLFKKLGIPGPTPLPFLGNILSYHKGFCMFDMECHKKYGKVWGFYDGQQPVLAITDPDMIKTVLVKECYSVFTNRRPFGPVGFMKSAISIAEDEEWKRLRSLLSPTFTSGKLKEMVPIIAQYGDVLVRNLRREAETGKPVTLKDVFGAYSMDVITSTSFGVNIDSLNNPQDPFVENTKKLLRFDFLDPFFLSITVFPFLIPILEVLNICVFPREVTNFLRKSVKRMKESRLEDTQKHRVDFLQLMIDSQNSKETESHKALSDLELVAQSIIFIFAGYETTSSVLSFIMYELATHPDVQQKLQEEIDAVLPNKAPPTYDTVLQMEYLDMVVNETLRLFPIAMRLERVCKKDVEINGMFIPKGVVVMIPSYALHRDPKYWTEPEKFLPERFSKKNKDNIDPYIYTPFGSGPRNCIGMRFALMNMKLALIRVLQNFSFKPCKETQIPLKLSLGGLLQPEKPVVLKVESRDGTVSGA
# [14] = Drug metabolism in bile duct-cannulated rat urine assessed as conjugation at 10 mg/kg, iv by LC/ESI-MS/MS analysis; type: ADME, organism-based; settings: in vivo
# [15] = Drug metabolism in bile duct-cannulated rat bile assessed as conjugation at 10 mg/kg, iv by LC/ESI-MS/MS analysis; type: ADME, organism-based; settings: in vivo
# [16] = Drug metabolism in bile duct-cannulated rat plasma assessed as oxidation at 10 mg/kg, iv by LC/ESI-MS/MS analysis; type: ADME, organism-based; settings: in vivo
# [17] = Drug metabolism in bile duct-cannulated rat urine assessed as oxidative dealkylation by measuring amide cleavage at 10 mg/kg, iv by LC/ESI-MS/MS analysis; type: ADME, organism-based; settings: in vivo
# [18] = Drug metabolism in bile duct-cannulated rat plasma assessed as oxidative dealkylation by measuring amide cleavage at 10 mg/kg, iv by LC/ESI-MS/MS analysis; type: ADME, organism-based; settings: in vivo
# [19] = Drug metabolism in bile duct-cannulated rat urine assessed as oxidative dealkylation by measuring loss of isopropyl group at 10 mg/kg, iv by LC/ESI-MS/MS analysis; type: ADME, organism-based; settings: in vivo
# [20] = Drug metabolism in bile duct-cannulated rat urine assessed as glutathione conjugation at 10 mg/kg, iv by LC/ESI-MS/MS analysis; type: ADME, organism-based; settings: in vivo
# [21] = Drug metabolism in bile duct-cannulated rat bile assessed as oxidative dealkylation by measuring loss of isopropyl group at 10 mg/kg, iv by LC/ESI-MS/MS analysis; type: ADME, organism-based; settings: in vivo
# [22] = Drug metabolism in bile duct-cannulated rat plasma assessed as oxidative dealkylation by measuring loss of isopropyl group at 10 mg/kg, iv by LC/ESI-MS/MS analysis; type: ADME, organism-based; settings: in vivo
# [23] = Drug metabolism in bile duct-cannulated rat plasma assessed as conjugation at 10 mg/kg, iv by LC/ESI-MS/MS analysis; type: ADME, organism-based; settings: in vivo
# [24] = Drug metabolism in bile duct-cannulated rat bile assessed as oxidative dealkylation by measuring amide cleavage at 10 mg/kg, iv by LC/ESI-MS/MS analysis; type: ADME, organism-based; settings: in vivo
# [25] = Drug metabolism in bile duct-cannulated rat bile assessed as oxidation at 10 mg/kg, iv by LC/ESI-MS/MS analysis; type: ADME, organism-based; settings: in vivo
# [26] = Drug metabolism in bile duct-cannulated rat urine assessed as oxidation at 10 mg/kg, iv by LC/ESI-MS/MS analysis; type: ADME, organism-based; settings: in vivo
# [27] = Drug metabolism in bile duct-cannulated rat plasma assessed as glutathione conjugation at 10 mg/kg, iv by LC/ESI-MS/MS analysis; type: ADME, organism-based; settings: in vivo
structure (smiles),measurement,setting,value
CS[C@@]1(C(=O)Nc2ccc3[nH]nc(-c4ccc(F)cc4)c3c2)CCN(CC(=O)N2CC=C(c3ccc(-c4ncccn4)cc3)CC2)C1,IC50,HT-29,0.118 µM
same,CLH,[1],7 µL/min
same,IC50,[2],0.041 µM
same,CLH,[3],18 µL/min
same,AUC,[4],25.9 to 26 µM·h
same,AUC,[5],17 µM·h
same,IC50,COLO 205,0.045 µM
CCNc1ncc(-c2ccc(C3=CCN(C(=O)CN4CC[C@@](SC)(C(=O)Nc5ccc6[nH]nc(-c7ccnc(C)c7)c6c5)C4)CC3)cc2)s1,IC50,HT-29,0.131 µM
same,IC50,[2],0.034 µM
same,inhibition,hERG (KCNH2) [6],-3%
same,IC50,COLO 205,0.03 µM
same,IC50,[7],0.006 µM
same,inhibition,hERG (KCNH2) [8],-7%
CS[C@]1(C(=O)Nc2ccc3[nH]nc(-c4ccc(OC(C)C)nc4)c3c2)CCN(CC(=O)N2CC=C(c3ccc(-c4ncn(C)n4)cc3)CC2)C1,inhibition at 1 µM,hERG (KCNH2) [9],6%
same,IC50,COLO 205,> 1 µM
same,inhibition at 10 µM,hERG (KCNH2) [10],10%
same,IC50,[7],0.729 µM
O=C(Nc1ccc2[nH]nc(-c3ccncc3)c2c1)[C@@H]1CCN(CC(=O)N2CCN(c3ccc(-c4ncccn4)cc3)CC2)C1,IC50,HT-29,0.059 µM
same,IC50,[2],0.008 µM
same,clearance,[11],122 mL/min/kg
same,MRT,[12],1.6 h
same,IC50,COLO 205,0.016 µM
same,half-life,[13],1.5 h
CS[C@@]1(C(=O)Nc2ccc3[nH]nc(-c4ccc(F)cc4)c3c2)CCN(CC(=O)N2CC=C(c3ncc(-c4ncccn4)s3)CC2)C1,IC50,HT-29,0.543 µM
same,IC50,[2],0.207 µM
same,inhibition,hERG (KCNH2) [6],10%
same,IC50,COLO 205,> 0.111 µM
same,IC50,[7],0.036 µM
same,inhibition,hERG (KCNH2) [8],-5%
COc1cc(-c2n[nH]c3ccc(NC(=O)[C@]4(SC)CCN(CC(=O)N5CC=C(c6ccc(-c7ncccn7)cc6)CC5)C4)cc23)ccn1,IC50,HT-29,0.06 µM
same,IC50,[2],0.019 µM
same,inhibition at 1 µM,hERG (KCNH2) [9],7%
same,inhibition,hERG (KCNH2) [6],15%
same,IC50,COLO 205,0.034 µM
same,inhibition at 10 µM,hERG (KCNH2) [10],19%
same,IC50,[7],0.005 µM
same,inhibition,hERG (KCNH2) [8],2%
CS[C@@]1(C(=O)Nc2ccc3[nH]nc(-c4ccc(OC(C)C)nc4)c3c2)CCN(CC(=O)N2CC=C(c3ccc(-c4ncccn4)cc3)CC2)C1,IC50,HT-29,0.079 µM
same,IC50,[2],0.093 µM
same,inhibition,hERG (KCNH2) [6],37%
same,IC50,COLO 205,0.057 µM
same,IC50,[7],0.013 µM
same,inhibition,hERG (KCNH2) [8],25%
CS[C@@]1(C(=O)Nc2ccc3[nH]nc(-c4ccc(F)cc4)c3c2)CCN(CC(=O)N2CCN(c3ccc(-c4ncccn4)cc3)CC2)C1,IC50,HT-29,0.087 µM
same,IC50,[2],0.025 µM
same,inhibition,hERG (KCNH2) [6],47%
same,IC50,COLO 205,0.047 µM
same,inhibition,hERG (KCNH2) [8],3%
CS[C@@]1(C(=O)Nc2ccc3[nH]nc(-c4ccc(F)cc4)c3c2)CCN(CC(=O)N2CCC(c3ccc(-c4ncccn4)cc3)CC2)C1,IC50,HT-29,0.245 µM
same,IC50,[2],0.043 µM
same,inhibition,hERG (KCNH2) [6],12%
same,IC50,COLO 205,0.076 µM
same,IC50,[7],0.023 µM
same,inhibition,hERG (KCNH2) [8],22%
CS[C@@]1(C(=O)Nc2ccc3[nH]nc(-c4ccc(F)cc4)c3c2)CCN(CC(=O)N2CCN(c3ccc(-c4ncccn4)cc3F)CC2)C1,IC50,[2],0.663 µM
same,IC50,[7],0.114 µM
CS[C@@]1(C(=O)Nc2ccc3[nH]nc(-c4ccc5c(c4)OCO5)c3c2)CCN(CC(=O)N2CC=C(c3ccc(-c4ncccn4)cc3)CC2)C1,IC50,HT-29,0.077 µM
same,IC50,[2],0.045 µM
same,AUC,[4],106 µM·h
same,inhibition,hERG (KCNH2) [6],16%
same,IC50,COLO 205,0.029 µM
same,IC50,[7],0.013 µM
same,IC50,Cytochrome P450 3A4,0.3 µM
same,inhibition,hERG (KCNH2) [8],19%
COc1cc(-c2n[nH]c3ccc(NC(=O)[C@]4(SC)CCN(CC(=O)N5CC=C(c6ccc(-c7ncn(C)n7)cc6)CC5)C4)cc23)ccn1,IC50,HT-29,0.08 µM
same,IC50,[2],0.0079 µM
same,inhibition at 1 µM,hERG (KCNH2) [9],0.8%
same,IC50,COLO 205,0.01 µM
same,inhibition at 10 µM,hERG (KCNH2) [10],7.2%
same,IC50,[7],0.0017 µM
CS[C@@]1(C(=O)Nc2ccc3[nH]nc(-c4ccc(F)cc4)c3c2)CCN(CC(=O)N2CC=C(c3ccc(-c4ncccn4)cc3F)CC2)C1,IC50,HT-29,0.209 µM
same,IC50,[2],0.135 µM
same,inhibition,hERG (KCNH2) [6],32%
same,IC50,COLO 205,0.083 µM
same,IC50,[7],0.025 µM
same,inhibition,hERG (KCNH2) [8],11%
CS[C@@]1(C(=O)Nc2ccc3[nH]nc(-c4ccc(F)cc4)c3c2)CCN(CC(=O)N2CC=C(c3nc(-c4ncccn4)cs3)CC2)C1,IC50,[2],0.952 µM
same,inhibition,hERG (KCNH2) [6],19%
same,IC50,[7],0.291 µM
same,inhibition,hERG (KCNH2) [8],6%
CCNc1nnc(-c2ccc(C3=CCN(C(=O)CN4CC[C@@](SC)(C(=O)Nc5ccc6[nH]nc(-c7ccc(F)cc7)c6c5)C4)CC3)cc2)o1,IC50,HT-29,0.049 µM
same,IC50,[2],0.017 µM
same,inhibition,hERG (KCNH2) [6],6%
same,IC50,COLO 205,0.022 µM
same,IC50,[7],0.005 µM
same,inhibition,hERG (KCNH2) [8],-3%
CS[C@@]1(C(=O)Nc2ccc3[nH]nc(-c4ccnc(OC(C)C)c4)c3c2)CCN(CC(=O)N2CC=C(c3ccc(-c4ncn(C)n4)cc3)CC2)C1,IC50,HT-29,0.099 µM
same,IC50,[2],0.074 µM
same,inhibition,hERG (KCNH2) [6],10%
same,IC50,COLO 205,0.041 µM
same,IC50,[7],0.027 µM
same,inhibition,hERG (KCNH2) [8],3%
[3H]c1cc(OC(C)C)nc([3H])c1-c1n[nH]c2ccc(NC(=O)[C@]3(SC)CCN(CC(=O)N4CC=C(c5ccc(-c6ncn(C)n6)cc5)CC4)C3)cc12,Drug metabolism,[14],Metabolite_Detected
same,Drug metabolism,[15],Metabolite_Detected
same,Drug metabolism,[16],Metabolite_Detected
same,Drug metabolism,[17],Metabolite_Detected
same,Drug metabolism,[18],Metabolite_Detected
same,Drug metabolism,[19],Metabolite_Detected
same,Drug metabolism,[20],Metabolite_Notdetected
same,Drug metabolism,[21],Metabolite_Detected
same,Drug metabolism,[22],Metabolite_Detected
same,Drug metabolism,[23],Metabolite_Detected
same,Drug metabolism,[24],Metabolite_Detected
same,Drug metabolism,[25],Metabolite_Detected
same,Drug metabolism,[26],Metabolite_Detected
same,Drug metabolism,[27],Metabolite_Notdetected
CC(C)Oc1ccc(-c2n[nH]c3ccc(NC(=O)[C@]4(S(C)(=O)=O)CCN(CC(=O)N5CC=C(c6ccc(-c7ncn(C)n7)cc6)CC5)C4)cc23)cn1,IC50,HT-29,0.243 µM
same,IC50,[2],0.228 µM
same,inhibition at 1 µM,hERG (KCNH2) [9],4%
same,IC50,COLO 205,0.086 µM
same,inhibition at 10 µM,hERG (KCNH2) [10],5%
same,IC50,[7],0.029 µM
